From patent US5080904A, “Liposome composition and its production” (Takeda Chemical Industries, Ltd., priority 1989, dated 1992)

Experiment: Phase transition temperature of the lipid
Assay type: physicochemical
Conditions: not given
For `CCCCCCCCCCCCCC(=O)OC[C@H](COP(=O)([O-])OCC[N+](C)(C)C)OC(=O)CCCCCCCCCCCCC` [DMPC, dimyristoylphosphatidylcholine], the “phase transition temperature (found value) of phospholipid” value was 23.9 °C.
In the case of `CCCCCCCCCCCCCC(=O)OCC(COP(=O)(O)OCCN)OC(=O)CCCCCCCCCCCCC` (centres unmarked) [DMPE, dimyristoylphosphatidylethanolamine], the “phase transition temperature (found value) of phospholipid” value is reported as 50 °C.
In the case of `CCCCCCCCCCCCCC(=O)OCC(COP(=O)(O)OCC(O)CO)OC(=O)CCCCCCCCCCCCC` (centres unmarked) [DMPG, dimyristoylphosphatidylglycerol], the “phase transition temperature (found value) of phospholipid” value is reported as 23 °C.
In the case of `CCCCCCCCCCCCCC(=O)OCC(COP(=O)(O)OCC(N)C(=O)O)OC(=O)CCCCCCCCCCCCC` (centres unmarked) [DMPS, dimyristoylphosphatidylserine], the “phase transition temperature (found value) of phospholipid” value is reported as 38 °C.
With `CCCCCCCCCCCCCCCC(=O)OC[C@H](COP(=O)([O-])OCC[N+](C)(C)C)OC(=O)CCCCCCCCCCCCCCC` [DPPC, dipalmitoylphosphatidylcholine] the “phase transition temperature (found value) of phospholipid” value was 41.4 °C.
For `CCCCCCCCCCCCCCCC(=O)OCC(COP(=O)(O)OCCN)OC(=O)CCCCCCCCCCCCCCC` (centres unmarked) [DPPE, dipalmitoylphosphatidylethanolamine], the “phase transition temperature (found value) of phospholipid” value was 60 °C.
In the case of `CCCCCCCCCCCCCCCC(=O)OCC(COP(=O)(O)OCC(O)CO)OC(=O)CCCCCCCCCCCCCCC` (centres unmarked) [DPPG, dipalmitoylphosphatidylglycerol], the “phase transition temperature (found value) of phospholipid” value is reported as 41 °C.
For `CCCCCCCCCCCCCCCC(=O)OCC(COP(=O)(O)OCC(N)C(=O)O)OC(=O)CCCCCCCCCCCCCCC` (centres unmarked) [DPPS, dipalmitoylphosphatidylserine], the “phase transition temperature (found value) of phospholipid” value was 51 °C.
In the case of `CCCCCCCCCCCCCCCCCC(=O)OCC(COP(=O)([O-])OCC[N+](C)(C)C)OC(=O)CCCCCCCCCCCCCCCCC` (centres unmarked) [DSPC, distearoylphosphatidylcholine], the “phase transition temperature (found value) of phospholipid” value is reported as 54.9 °C.
With `CCCCCCCCCCCCCCCCCC(=O)OCC(COP(=O)(O)OCCN)OC(=O)CCCCCCCCCCCCCCCCC` (centres unmarked) [DSPE, disteraroylphosphatidylethanolamine] the “phase transition temperature (found value) of phospholipid” value was “over 60 °C”.
For `CCCCCCCCCCCCCCCCCC(=O)OCC(COP(=O)(O)OCC(O)CO)OC(=O)CCCCCCCCCCCCCCCCC` (centres unmarked) [DSPG, distearoylphosphatidylglycerol], the “phase transition temperature (found value) of phospholipid” value was 55 °C.
For `CCCCCCCCCCCCCCCCCC(=O)OCC(COP(=O)(O)OCC(N)C(=O)O)OC(=O)CCCCCCCCCCCCCCCCC` (centres unmarked) [DSPS, distearoylphosphatidylserine], the “phase transition temperature (found value) of phospholipid” value was “over 50 °C”.
For `CCCCCCCCCCCCCCCC(=O)OC[C@H](COP(=O)([O-])OCC[N+](C)(C)C)OC(=O)CCCCCCCCCCCCC` [PMPC, palmitoylmyristoylphosphatidylcholine], the “phase transition temperature (found value) of phospholipid” value was 27.2 °C.
For `CCCCCCCCCCCCCCCCCC(=O)O[C@H](COC(=O)CCCCCCCCCCCCCCC)COP(=O)([O-])OCC[N+](C)(C)C` [PSPC, palmitoylstearoylphosphatidylcholine], the “phase transition temperature (found value) of phospholipid” value was 47.4 °C.
For `CCCCCCCCCCCCCCCCCC(=O)OC[C@H](COP(=O)([O-])OCC[N+](C)(C)C)OC(=O)CCCCCCCCCCCCCCC` [SPPC, stearoylpalmitoylphosphatidylcholine], the “phase transition temperature (found value) of phospholipid” value was 44.0 °C.
In the case of dipalmitoylsphingomyelin [DPSM], the “phase transition temperature (found value) of phospholipid” value is reported as 41 °C.
In the case of distearoylsphingomyelin [DSSM], the “phase transition temperature (found value) of phospholipid” value is reported as 57 °C.
In the case of “myristoylpalmitoylphosphatidylcholine [MPPC]”, the “phase transition temperature (found value) of phospholipid” value is reported as 35.3 °C.

Experiment: not given
Conditions: Biochemica et Biophysica Acta, 859, 246-256 (1986); cited from earlier work
In the case of sulfatide, the “phase transition temperature of sulfatide, first value” is listed as 34.8 °C and the “phase transition temperature of sulfatide, second value” is listed as 47.3 °C.
